Experimental data published in patent EP0430129A2, “Novel phenylethylene derivatives, processes for preparing the same and intermediates therefor” (TANABE SEIYAKU CO., LTD., priority 1989, dated 1991).

Target: T1, Rat Hepatic Microsomal HMG-CoA reductase (HMGR) (Rattus norvegicus, UniProt P51639)
T1 construct: Microsomes prepared from liver of rats administered with cholestyramine; from tissue
T1 sequence (P51639 1-887): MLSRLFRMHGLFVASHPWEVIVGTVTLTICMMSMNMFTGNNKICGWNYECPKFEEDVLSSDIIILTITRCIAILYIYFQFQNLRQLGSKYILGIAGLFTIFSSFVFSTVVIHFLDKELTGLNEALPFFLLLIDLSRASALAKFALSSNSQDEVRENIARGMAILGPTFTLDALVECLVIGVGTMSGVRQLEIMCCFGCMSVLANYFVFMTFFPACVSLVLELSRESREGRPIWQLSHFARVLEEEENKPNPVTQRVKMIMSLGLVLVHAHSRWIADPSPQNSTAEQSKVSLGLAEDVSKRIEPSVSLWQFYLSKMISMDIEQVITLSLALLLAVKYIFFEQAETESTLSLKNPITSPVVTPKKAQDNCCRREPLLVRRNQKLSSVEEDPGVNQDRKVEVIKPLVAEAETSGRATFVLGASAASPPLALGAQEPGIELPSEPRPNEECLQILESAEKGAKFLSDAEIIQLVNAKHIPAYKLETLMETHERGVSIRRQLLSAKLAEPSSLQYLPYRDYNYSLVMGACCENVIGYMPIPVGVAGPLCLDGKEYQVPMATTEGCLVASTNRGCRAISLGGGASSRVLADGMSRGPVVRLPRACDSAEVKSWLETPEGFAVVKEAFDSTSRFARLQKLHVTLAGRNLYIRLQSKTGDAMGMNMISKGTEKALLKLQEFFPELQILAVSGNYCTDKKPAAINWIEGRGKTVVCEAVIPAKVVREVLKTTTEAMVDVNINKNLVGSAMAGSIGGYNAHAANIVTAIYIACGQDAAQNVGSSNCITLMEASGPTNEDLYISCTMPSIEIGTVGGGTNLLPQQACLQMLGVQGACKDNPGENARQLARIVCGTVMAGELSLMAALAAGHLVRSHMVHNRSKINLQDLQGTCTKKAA
Assay: Inhibitory activity against rat hepatic microsomal HMG-CoA reductase (14C-HMG-CoA substrate, 14C-mevalonolactone measured by TLC and scintillation counting)
Type: biochemical
Details: microsomes from liver of rats administered with cholestyramine, incubated for 10 minutes; for inhibition at 1 µM: Concentration of test compound 10^-6 M
Experimental: Experiment: Inhibitory activity against Rat Hepatic Microsomal HMG-CoA reductase (HMGR)
HMGR activities of microsomes are measured in accordance with the method of N. L. Young et al., Methods in Enzymology, 71, 498 (1981).
Microsomes prepared from liver of rats administered with cholestyramine were mixed with a solution of the compounds to be tested in dimethyl sulfoxide and ¹⁴C-HMG-CoA (substrate). After the mixture was incubated for 10 minutes, the reaction was quenched with 6N hydrochloric acid and the mixture was allowed to stand at 37°C for 15 minutes, followed by centrifugation. The supernatant was spotted on thin layer chromatography (TLC; Kieselgel 60F254 manufactured by Merck) and developed with toluene/acetone (1:1). The spot of ¹⁴C-mevalonolactone was collected and the amount of isotope was measured with a scintillation counter (Type 4640 TRI-CARB. manufactured by Paccard) to calculate an amount of the formed mevalonolactone. By comparing amounts of the formed mevalonolactone in the group treated with test compounds and the control group (without test compounds), HMGR activity inhibition rates of the test compounds were calculated.

Row | Compound | inhibition at 100 µM (Concentration of test compound 10^-4 M) [%] | inhibition at 1 µM [%]
1 | O=C(O)C[C@H](O)C[C@H](O)/C=C/C(=C(c1ccc(F)cc1)c1ccc(F)cc1)c1ccccc1 (racemic) [(±)-(3R*,5S*) [r3]] | 96 | 79
2 | O=C(O)C[C@H](O)C[C@H](O)/C=C/C(=C(c1ccc(F)cc1)c1ccc(F)cc1)c1ccco1 (single isomer, unassigned) [(-)-(3R*,5S*)] | – | 93
